As a reminder, the IC50 is the concentration needed to halve the response being measured.

Bounds are passed on as bounds.

The values below come from ChEMBL document CHEMBL4007392, “Modulating Mineralocorticoid Receptor with Non-steroidal Antagonists. New Opportunities for the Development of Potent and Selective Ligands without Off-Target Side Effects” (J Med Chem, 2017).

The target in one test is T1, Androgen receptor (Homo sapiens, UniProt P10275).
T1 sequence (P10275 whole entry): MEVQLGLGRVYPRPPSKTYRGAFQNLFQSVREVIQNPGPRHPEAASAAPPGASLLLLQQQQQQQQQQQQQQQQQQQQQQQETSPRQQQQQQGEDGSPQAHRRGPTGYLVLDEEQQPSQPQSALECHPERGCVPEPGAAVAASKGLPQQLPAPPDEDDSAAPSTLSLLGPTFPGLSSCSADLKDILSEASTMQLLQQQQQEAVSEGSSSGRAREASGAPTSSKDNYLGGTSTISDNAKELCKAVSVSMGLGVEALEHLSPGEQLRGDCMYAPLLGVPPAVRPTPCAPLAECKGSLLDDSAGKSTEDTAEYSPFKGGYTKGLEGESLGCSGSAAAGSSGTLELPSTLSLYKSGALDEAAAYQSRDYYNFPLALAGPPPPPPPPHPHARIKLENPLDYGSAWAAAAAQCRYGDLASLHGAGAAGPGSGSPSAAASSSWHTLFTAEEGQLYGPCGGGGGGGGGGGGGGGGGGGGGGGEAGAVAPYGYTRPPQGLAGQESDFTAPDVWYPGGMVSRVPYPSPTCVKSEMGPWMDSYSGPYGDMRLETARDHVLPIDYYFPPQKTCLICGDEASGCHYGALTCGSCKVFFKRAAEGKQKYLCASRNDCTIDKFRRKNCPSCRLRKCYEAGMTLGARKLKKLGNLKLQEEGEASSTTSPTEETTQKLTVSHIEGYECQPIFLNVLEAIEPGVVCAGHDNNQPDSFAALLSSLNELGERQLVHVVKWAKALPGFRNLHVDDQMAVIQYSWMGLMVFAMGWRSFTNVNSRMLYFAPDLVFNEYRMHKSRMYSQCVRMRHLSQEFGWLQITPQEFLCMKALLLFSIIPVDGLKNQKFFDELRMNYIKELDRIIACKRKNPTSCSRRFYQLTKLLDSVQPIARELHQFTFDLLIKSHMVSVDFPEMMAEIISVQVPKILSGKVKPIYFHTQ
The test can be described thus: Antagonist activity at GAL4-fused human AR LBD (667 to 919 residues) expressed in CHO-K1 cells assessed as inhibition of dihydrotestosterone-induced transactivation activity after 5 to 6 hrs by luciferase reporter gene assay. It counts as cell-based.

Test [1] addresses T2, Mineralocorticoid receptor (Homo sapiens, UniProt P08235).
T2 sequence (P08235 whole entry): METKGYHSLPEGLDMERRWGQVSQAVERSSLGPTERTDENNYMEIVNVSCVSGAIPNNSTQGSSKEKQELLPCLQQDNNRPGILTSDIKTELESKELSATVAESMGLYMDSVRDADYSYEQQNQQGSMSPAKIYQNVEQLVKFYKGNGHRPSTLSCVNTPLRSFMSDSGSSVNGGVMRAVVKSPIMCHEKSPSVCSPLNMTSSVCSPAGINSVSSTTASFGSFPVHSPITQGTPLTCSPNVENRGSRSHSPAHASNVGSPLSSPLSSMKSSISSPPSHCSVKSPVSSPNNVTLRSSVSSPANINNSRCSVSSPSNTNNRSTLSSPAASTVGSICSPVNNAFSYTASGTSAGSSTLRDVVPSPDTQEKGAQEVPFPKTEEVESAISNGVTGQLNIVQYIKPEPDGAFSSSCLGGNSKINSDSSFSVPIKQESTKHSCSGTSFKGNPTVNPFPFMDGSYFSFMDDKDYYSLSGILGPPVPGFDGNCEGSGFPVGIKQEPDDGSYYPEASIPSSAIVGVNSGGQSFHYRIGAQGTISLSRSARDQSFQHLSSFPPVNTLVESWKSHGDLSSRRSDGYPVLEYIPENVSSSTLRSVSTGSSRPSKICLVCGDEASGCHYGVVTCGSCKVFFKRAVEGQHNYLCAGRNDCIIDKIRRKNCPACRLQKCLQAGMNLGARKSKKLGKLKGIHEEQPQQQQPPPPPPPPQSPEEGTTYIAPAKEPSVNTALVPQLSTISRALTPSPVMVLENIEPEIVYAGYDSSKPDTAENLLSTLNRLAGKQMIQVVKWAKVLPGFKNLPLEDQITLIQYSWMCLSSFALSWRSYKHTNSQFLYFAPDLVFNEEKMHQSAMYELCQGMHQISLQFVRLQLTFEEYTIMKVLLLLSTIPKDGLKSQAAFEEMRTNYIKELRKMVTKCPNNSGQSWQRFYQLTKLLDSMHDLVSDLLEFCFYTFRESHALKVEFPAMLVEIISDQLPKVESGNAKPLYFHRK
Put plainly: Antagonist activity at Gal4-fused human MR LBD expressed in HEK293T cells assessed as inhibition of aldosterone-induced transactivation activity after 16 hrs by luciferase reporter gene assay. It counts as cell-based, HEK-293T.

Another test concerns the target T3, Glucocorticoid receptor (Homo sapiens, UniProt P04150).
T3 sequence (P04150 whole entry): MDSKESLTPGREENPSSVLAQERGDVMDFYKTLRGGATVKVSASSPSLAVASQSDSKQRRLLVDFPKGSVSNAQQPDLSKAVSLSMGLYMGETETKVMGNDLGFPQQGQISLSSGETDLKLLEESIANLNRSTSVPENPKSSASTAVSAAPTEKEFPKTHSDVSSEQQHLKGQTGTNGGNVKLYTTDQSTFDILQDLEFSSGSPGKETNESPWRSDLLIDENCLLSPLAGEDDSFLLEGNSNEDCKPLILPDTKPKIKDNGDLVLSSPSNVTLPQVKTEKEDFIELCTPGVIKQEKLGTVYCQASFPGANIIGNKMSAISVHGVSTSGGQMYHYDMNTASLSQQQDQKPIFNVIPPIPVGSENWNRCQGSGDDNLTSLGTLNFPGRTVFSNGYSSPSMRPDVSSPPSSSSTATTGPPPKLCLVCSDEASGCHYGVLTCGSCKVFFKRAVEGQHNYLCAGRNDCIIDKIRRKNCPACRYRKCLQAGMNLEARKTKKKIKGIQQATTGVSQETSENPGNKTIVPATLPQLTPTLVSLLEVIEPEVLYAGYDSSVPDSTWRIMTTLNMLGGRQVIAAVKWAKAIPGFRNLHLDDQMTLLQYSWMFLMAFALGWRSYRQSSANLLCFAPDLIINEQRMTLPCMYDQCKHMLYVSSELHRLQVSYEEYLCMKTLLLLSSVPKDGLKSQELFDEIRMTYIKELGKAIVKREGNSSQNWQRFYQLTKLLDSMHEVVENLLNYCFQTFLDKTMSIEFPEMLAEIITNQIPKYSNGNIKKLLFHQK
The test can be described thus: Antagonist activity at GAL4-fused human GR LBD (443 to 777 residues) expressed in CHO-K1 cells assessed as inhibition of dexamethasone-induced transactivation activity after 5 to 6 hrs by luciferase reporter gene assay. It counts as cell-based. A general note: In a reporter assay the amount or activity of a reporter protein is the signal.

For the next test, the species on record is Homo sapiens. The test can be described thus: Induction of improvement in urinary albumin-creatinine ratio in patient with diabetic nephropathy receiving ACE inhibitor or angiotensin receptor blocker at 7.5 to 20 mg/day during latter phase II trial. The test is classed as functional. Set-up: scale not given: the % may be the effect or the level left.

Turning to `CCOc1ncc(C)c2c1[C@H](c1ccc(C#N)cc1OC)C(C(N)=O)=C(C)N2` [FINERENONE], the IC50 was ≥ 10 µM on Androgen receptor, 0.058 µM in test [1] and ≥ 10 µM at Glucocorticoid receptor. Further, the Activity in the test listed under Homo sapiens is given as 21 - 38%.
